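Dose response: 5 concentrations. Exposure: 48 h. Format: 96-well plates. Endpoint: linear interpolation; highest concentration if not reached. The concentration for 50% growth inhibition is given as GI50. TGI marks complete inhibition of growth.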
Test system: MDA-MB-468 breast
Experiment: inhibition of tumour cell growth, NCI panel, 48 h

SMILES: COc1cccc(/C=C/[N+](=O)[O-])c1
- GI50: 2.3 µM
- TGI: 5.21 µM

SMILES: O=C(O)c1ccc(Oc2nccc(-c3c(-c4ccc(F)cc4)ncn3C3CCNCC3)n2)cc1
- GI50: > 25 µM
- TGI: > 25 µM

SMILES: N#CC1=C(N)Oc2c(ccc3ccccc23)C1c1ccccc1 (configuration not stated)
- GI50: 0.0751 µM
- TGI: 1.79 µM

SMILES: C=C(C)[C@@H]1CC[C@]2(C(=O)O)CC[C@]3(C)[C@H](CC[C@@H]4[C@@]5(C)CCC(NC(=O)c6cccc(OC(C)=O)c6OC(C)=O)C(C)(C)[C@@H]5CC[C@]43C)[C@@H]12 (some centres not stated)
- GI50: 0.424 µM
- TGI: 2.89 µM

SMILES: C[C@@H](O)[C@H](NC(=O)N[C@@H](CC(N)=O)c1nc([C@@H](N)CO)no1)C(=O)O
- GI50: > 100 µM
- TGI: > 100 µM

SMILES: COc1ccc(NC([Se])=NC23CC4CC(CC(C4)C2)C3)cc1
- GI50: 1.35 µM
- TGI: 3.42 µM

SMILES: CC(=O)N1C/C(=C/c2ccc(Cl)cc2)C(=O)/C(=C/c2ccc(Cl)cc2)C1
- GI50: 0.469 µM
- TGI: 1.76 µM

SMILES: COc1cc2c(cc1OC)-c1ccc3cc4c(cc3c1N(CCCn1ccnc1)C2)OCO4
- GI50: 0.397 µM
- TGI: 2.73 µM

SMILES: CC(C)C[C@H](NC(=O)Cn1ccc(NCc2ccccc2)cc1=O)B(O)O
- GI50: 0.37 µM
- TGI: 1.78 µM

SMILES: CS(=O)(=O)CCNCc1ccc(-c2ccc3ncnc(Nc4ccc(OCc5ccccc5)c(Br)c4)c3c2)o1
- GI50: 0.082 µM
- TGI: 1 µM

SMILES: CCCN(CCC)c1ccc(/C=C/c2ccc3cc(OCC)ccc3n2)cc1
- GI50: 80.1 µM
- TGI: > 100 µM

SMILES: CCOC(=O)NC1C2CC(=O)OC(O2)C1OC(C)=O (configuration not stated)
- GI50: > 100 µM
- TGI: > 100 µM

SMILES: NC1CCC(Nc2nc(NCc3ccc(-c4ccccc4O)nc3)c3ncn(C4CCCC4)c3n2)CC1 (configuration not stated)
- GI50: < 0.01 µM
- TGI: 0.0129 µM

SMILES: CCN(Cc1ccccc1)c1ccc(CO)c(Cl)c1
- GI50: 0.0202 µM
- TGI: 0.0559 µM

SMILES: C=C1C(=O)O[C@H]2[C@H]1CC/C(COC(=O)C(=O)c1cn(C)c3ccc(Cl)cc13)=C\CC[C@@]1(C)O[C@@H]21
- GI50: 0.248 µM
- TGI: 0.637 µM

SMILES: COc1cc2ncn(-c3cc(O[C@@H](C)c4ccccc4Cl)c(C(N)=O)s3)c2cc1OC
- GI50: 0.12 µM
- TGI: 1.61 µM

SMILES: O=S(=O)(NCCCNc1nccc(-c2c(-c3ccc(F)c(O)c3)nc3sccn23)n1)c1ccc(F)cc1
- GI50: 2.62 µM
- TGI: 7.35 µM

SMILES: CNC(=O)c1ccc(N2C(=S)N(c3ccc(C#N)c(C(F)(F)F)c3)C(=O)C2(C)C)cc1F
- GI50: 17.1 µM
- TGI: > 75.7 µM

SMILES: C/C(=N\Nc1cc(C)c2ccccc2n1)c1ccccn1
- GI50: 0.0662 µM
- TGI: 0.749 µM

SMILES: Cc1ccc2c(-c3ccnc(Nc4ccccc4)n3)c(-c3ccc(F)cc3)nn2n1
- GI50: 0.961 µM
- TGI: 6.35 µM

SMILES: O=C1NC(=O)C(c2ccccc2Cl)=C1Nc1cc(Cl)c(O)c(Cl)c1
- GI50: 6.29 µM
- TGI: > 21.4 µM

SMILES: C=C1C(=O)O[C@H]2[C@H]1CC/C(COC(=O)c1cc3ccccc3o1)=C\CC[C@@]1(C)O[C@@H]21
- GI50: 1.5 µM
- TGI: 3.72 µM

SMILES: COc1cc(-c2ccc(-c3ccc(C(=N)N)nc3)s2)cc(OC)c1OC
- GI50: 1.74 µM
- TGI: 4.41 µM

SMILES: C=C(NC(=O)C(=C)NC(=O)c1csc(C2=NC3c4csc(n4)C4NC(=O)c5csc(n5)C(C(C)(O)C(C)O)NC(=O)C5CSC(=N5)C(=CC)NC(=O)C(C(C)O)NC(=O)c5csc(n5)C3(CC2)NC(=O)C(C)NC(=O)C(=C)NC(=O)C(C)NC(=O)C(C(C)CC)NC2C=Cc3c(C(C)O)cc(nc3C2O)C(=O)OC4C)n1)C(N)=O (configuration not stated)
- GI50: 1.58 µM
- TGI: 3.63 µM

SMILES: Cc1c2c(cc[n+]1Cc1ccccc1)c1ccc(OCc3ccccc3)cc1n2Cc1ccccc1
- GI50: 0.191 µM
- TGI: 0.915 µM

SMILES: Cc1nc2sc(C(=O)Nc3cccc4ccccc34)c(N)c2cc1C(O)c1ccccc1 (configuration not stated)
- GI50: 0.0351 µM
- TGI: 15.2 µM

SMILES: C=C(CN1CCN(c2cccc(C(F)(F)F)n2)CC1)c1ccc(C(=O)Nc2ccccc2N)cc1
- GI50: 1.19 µM
- TGI: 7.28 µM

SMILES: CC(=Nc1ccccc1)C1=C(O)C(Cc2ccc(O)cc2)NC1=O (configuration not stated)
- GI50: 0.0244 µM
- TGI: 0.0874 µM

SMILES: C=CCn1c(SCC(=O)Nc2ccc(C(=O)/C=C/c3cc(OC)c(OC)c(OC)c3)cc2)nnc1-c1c[nH]c2ccccc12
- GI50: 1.77 µM
- TGI: 4.21 µM

SMILES: COc1cc(N2CCC(N3CCN(C)CC3)CC2)ccc1Nc1ncnc(Nc2ccccc2S(=O)(=O)C(C)C)n1
- GI50: 4.78 µM
- TGI: 20.3 µM

SMILES: O=C1CC(=O)N(C(=O)c2nn(-c3ccc(Cl)cc3)cc2O)N1
- GI50: 0.716 µM
- TGI: > 66.5 µM

SMILES: CCC(=O)Nc1ccccc1C#C/C=C\C#Cc1ccccc1SC
- GI50: 3.12 µM
- TGI: > 100 µM

SMILES: Cc1ccc(Cc2cnc(NC(=O)/C=C/c3cccc(C)c3)s2)cc1
- GI50: 0.309 µM

SMILES: COc1ccc(-c2cc(-c3ccc(Cl)cc3)nc(SCCCC(=O)NO)n2)cc1
- GI50: 1.49 µM
- TGI: 4.34 µM
